Measured values reported in US6532386B2, “Electrotransort device comprising blades” (Johnson & Johnson Consumer Companies, Inc., priority 1998, dated 2003).

Legend:
[1] = Transdermal reverse polarity iontophoresis of insulin in pig: blood glucose concentration; format: in vivo
Description: The procedure in Example 3 was repeated, except the stratum corneum of the pig was not disrupted with 400 μm blades and reverse polarity iontophoresis was only conducted for 30 minutes. […] Thus, no insulin was apparently delivered during the iontophoresis process.
The procedure in Example 4 was repeated, except 800 μm blades were pressed against the stratum corneum of a diabetic pig before iontophoresis was performed. The blood glucose in the pig was monitored for 9 hours.
The procedure described in Example 5 was then repeated.
The procedure in Example 5 was repeated except that ethyl cyanoacrylate was applied to the surface of the 800 μm blades before the blades were pressed against the skin of the pig. The blades were held against the skin of the pig for 2 minutes prior to performing iontophoresis to allow the ethyl cyanoacrylate to solidify prior to removal. […] The blood glucose concentration in the pig was monitored for 8 hours. The quantity of insulin delivered was so large that the hyperglycemic pig having an initial blood glucose concentration of 180 mg/dl became seriously hypoglycemic with a blood glucose concentration of 25 mg/dl.

[2] = Source text: The stratum corneum was physically disrupted by repeatedly scratching the skin of a pig with 400 μm blades 20 times, 10 scratchings in one direction, 10 more in a direction perpendicular to the previous direction. Two electrodes were constructed with hollow 3.5 cm by 3.5 cm by 0.5 cm polystyrene vessels each having a volume of about 5 cm^3. A 3 cm by 3 cm by 0.5 mm piece of stainless steel was adhered to the inside of each polystyrene vessel. The electrodes were affixed to the skin of the pig with Dow Corning 355 Medical Adhesive available from Dow Corning of Midland, Mich.
An insulin solution available as Humulin-®(500 units/mL) from Eli Lilly and Co. of Indianapolis, Ind., was injected into the vessel with a hyperdermic needle. Iontophoresis was performed with direct current at a current intensity of 4 mA over about 12 cm^2 of skin. The electric polarity was manually reversed every 5 minutes for 2 hours. The blood glucose concentration and insulin serum concentration in the pig were periodically measured before, during, and after iontophoresis.
The skin on a pig was wiped generously with 200 proof ethanol and allowed to dry to induce skin permeation enhancement. The procedure described in Example 5 was then repeated. The blood glucose concentration and insulin serum concentration in the pig were monitored for 6 hours. […]

[3] = Example 5: diabetic pig, 800 μm blades, iontophoresis 30 minutes

insulin
reduction in blood glucose ([1]; Comparative Example 4: stratum corneum not disrupted with blades, reverse polarity iontophoresis 30 minutes): lack of any reduction in blood glucose
blood glucose concentration ([1]; Example 3: pig skin scratched with 400 μm blades, iontophoresis 4 mA over about 12 cm^2, polarity reversed every 5 minutes for 2 hours, from 140 mg/dl): 30 mg/dL
reduction of the blood glucose concentration ([1]; Example 3: pig skin scratched with 400 μm blades, reverse polarity iontophoresis for 2 hours): ~80%
reduction in the blood glucose concentration ([1]; Example 5: diabetic pig, 800 μm blades pressed against stratum corneum, iontophoresis 30 minutes, monitored 9 hours): ~37%
blood glucose level maintained [1, 3]: below 140 mg/dl
time blood glucose level was maintained below 140 mg/dl [1, 3]: over 8 hours
reduction of blood glucose ([1]; Example 6: skin wiped with 200 proof ethanol, 800 μm blades, after 2 hours): ~50%
reduction of blood glucose ([1]; Example 7: skin pre-treated with Nair lotion (calcium thioglycolate), 800 μm blades, iontophoresis 120 minutes, after 3 hours): 30%
blood glucose concentration ([1]; Example 8: hyperglycemic pig, ethyl cyanoacrylate on 800 μm blades, iontophoresis 120 minutes, initial 180 mg/dl): 25 mg/dL
insulin serum rise (insulin serum concentration) ([2]; Example 3: pig skin scratched with 400 μm blades, reverse polarity iontophoresis for 2 hours, from 25): 590 _IU/ml
serum insulin concentration ([2]; Example 6: skin wiped with 200 proof ethanol, 800 μm blades, after one hour): approximately 60 _IU/ml
